Measurements published in ChEMBL document CHEMBL3045233, “Insecticidal and neuroblocking potencies of variants of the imidazolidine moiety of imidacloprid-related neonicotinoids and the relationship to partition coefficient and charge density on the pharmacophore” (J Agric Food Chem, 2007).

Key:
[1] = Hydrophobicity, log P of the compound in octanol-water by shaking-flask method; format: physicochemical
Periplaneta americana = assay: Toxic effect in Periplaneta americana (American cockroach) assessed as paralyzed insects after 24 hr of abdomen compound injection by insecticidal assay; format: functional
[2] = molecular target: T1, Nicotinic acetylcholine receptor alpha8 subunit (Periplaneta americana) (UniProt H6TY12); assay: Neuroblocking activity in Periplaneta americana (American cockroach) nicotinic acetylcholine receptor in abdominal fifth and sixth ganglia nerve assessed as neuroblocking concentration by neurophysiological test
T1 sequence (whole entry): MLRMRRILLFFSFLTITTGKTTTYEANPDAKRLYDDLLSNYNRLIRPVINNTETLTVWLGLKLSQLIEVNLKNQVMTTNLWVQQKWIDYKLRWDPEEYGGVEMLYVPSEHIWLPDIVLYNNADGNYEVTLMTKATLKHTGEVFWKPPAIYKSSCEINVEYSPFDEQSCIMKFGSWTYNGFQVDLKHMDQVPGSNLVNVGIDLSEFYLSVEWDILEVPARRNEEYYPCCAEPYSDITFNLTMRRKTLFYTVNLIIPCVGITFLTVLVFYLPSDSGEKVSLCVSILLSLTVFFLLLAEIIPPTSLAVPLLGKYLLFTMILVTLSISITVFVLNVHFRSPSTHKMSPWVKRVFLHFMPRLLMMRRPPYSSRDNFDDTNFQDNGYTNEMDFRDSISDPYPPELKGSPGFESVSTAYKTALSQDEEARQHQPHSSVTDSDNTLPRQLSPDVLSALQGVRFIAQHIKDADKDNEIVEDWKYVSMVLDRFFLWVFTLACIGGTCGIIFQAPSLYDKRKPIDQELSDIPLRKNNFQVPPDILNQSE

Structure (SMILES)	logP [1]	log(1/MLD) (Periplaneta americana)	log(1/BC) [2]
O=[N+]([O-])/N=C1\NCCCN1Cc1ccc(Cl)nc1	0.57	8.22	5.35
CN1CCN(Cc2ccc(Cl)nc2)/C1=N/[N+](=O)[O-]	-0.07	8.53	3.81
O=[N+]([O-])/C=C1\CCCN1Cc1cnc(Cl)s1	–	8.96	6.31
O=[N+]([O-])/N=C1\NCCN1Cc1cnc(Cl)s1 [IMIDACLOTHIZ]	0.61	8.42	5.97
O=[N+]([O-])NC1=NCCN1Cc1ccc(Cl)nc1 [IMIDACLOPRID]	0.53	–	–
O=[N+]([O-])/N=c1\ccccn1Cc1cnc(Cl)s1	0.67	8.92	5.75
O=[N+]([O-])/N=c1\sccn1Cc1ccc(Cl)nc1	0.53	8.85	5.68
CN1CCN(Cc2ccc(Cl)nc2)/C1=C/[N+](=O)[O-]	-0.84	7.77	3.84
O=[N+]([O-])/N=c1\sccn1Cc1cnc(Cl)s1	0.96	7.85	5.79
O=[N+]([O-])/N=C1\NCCN1Cc1ccc(Cl)nc1 [IMIDACLOPRID]	–	8.96	5.64
O=[N+]([O-])/N=C1\SCCN1Cc1cnc(Cl)s1	0.8	7.42	6
O=[N+]([O-])/C=C1\SCCN1Cc1ccc(Cl)nc1	0.47	9.76	6.19
O=[N+]([O-])/C=C1\CCCN1Cc1ccc(Cl)nc1	0.45	9.84	6.43
O=[N+]([O-])/N=c1\[nH]ccn1Cc1cnc(Cl)s1	0.27	8.12	4.61
O=[N+]([O-])/C=C1\NCCN1Cc1ccc(Cl)nc1	-0.18	9.19	5.02
O=[N+]([O-])/C=C1\NCCN1Cc1cnc(Cl)s1	0.03	9.34	5.73
O=[N+]([O-])/N=c1\ccccn1Cc1ccc(Cl)nc1	0.51	8.88	5.09
O=[N+]([O-])Nc1nccn1Cc1ccc(Cl)nc1 [DEHYDROIMIDACLOPRID]	0.33	7.72	4.31
